The values that follow come from US20220050096A1, “ANALYTE-SENSITIVE PROBES AND CONTACT LENS FOR DIAGNOSIS OF OCULAR PATHOLOGIES” (University Of Maryland, Baltimore, priority 2020, published 2022).

A short description of series [1]: Intensity decay analysis of 1,8-ANS in various solvents and contact lenses. Format: physicochemical. How it is done: (§1) Fluorescence Spectroscopic Measurements. Fluorescence intensities and intensity decays were measured using a Varian™ Eclipse 4 spectrofluorometer and a FluoTime300 instrument from PicoQuant™ (Berlin, Germany) and analyzed with the EasyTau™ software. The excitation source was a 473 nm laser diode with a repetition rate of 40 MHZ and a pulse width less than 100 ps. In other embodiments, the excitation source for SG-PL was at 495 nm from a Solea™ supercontinuum laser (PicoQuant™, Germany) and a 375 nm laser diode (PDL 375, PicoQuant™), a repetition rate of 40 MHz, and a pulse width less than 100 ps. Some intensity and lifetime measurements for SG-PL (as indicated) were performed using Alba V confocal fluorescence lifetime microscopy, FLIM (ISS, Urbana, Ill.), with excitation source of a 473 nm laser diode with a repetition rate of 40 MHz and a pulse width near 250 ps.
(§2) Intensity decays were measured at the emission maximum with the band of 10 to 20 nm, analyzed in terms of the multi-exponential model:
(§3) I(t)=Σαi exp(−t/ti) (equation 1)
(§4) where Σαi=1.0 and Σfi=1.0. The term fi=αi τi is proportional to the fractional contribution of each component to the total intensity decay. The term τi/Σαi τi is the fractional contribution to the steady state emission. Here, we use the amplitude-weighted lifetime given by
In polar solvents like water, the emission of many fluorophores is shifted to longer wavelengths. In addition, the intensities can be much lower and the lifetimes much shorter. […] Table 20, below. […]

The conditions of series [2]: cited from earlier work; for Lifetime (ns), Ca bound form / Q, Ca bound form: bound form (in parentheses).
The conditions of series [3]: cited from earlier work.
Series [4] can be described thus: Intensity decay of Prodan in various solvents and contact lenses. It counts as physicochemical. How it is done: as §1, §2, §3, §4
The observed spectral properties of 1,8-ANS in lens are consistent with 1,8-ANS properties noticed in a non-polar environment. The probe 6-propionyl-2-dimethylaminonaphthalene (Prodan™), which is also highly sensitive to local polarity, also was used. […] In MyDay™ lenses the emission maximum is at a shorter wavelength than that in acetonitrile.

The conditions of series [5]: cited from earlier work. The source holds these as a separate data set.
Setting [6] is: cation-bound form (in parentheses).

In series [1] (1-hexanol), `O=S(=O)(O)c1cccc2cccc(Nc3ccccc3)c12` [1,8-ANS, 1-anilino-8-naphthalene sulfonic acid] came in with a f1 of 0.01, a f2 of 0.99, a α1 of 0.08 and a α2 of 0.92. In series [1] (1-hexanol), this molecule returned a τ1 of 1.77 ns, a τ2 of 12.02 ns, a τf of 11.88 ns and a τα of 11.18 ns. For the same molecule, in series [1] (25/75 MeOH/H2O), the f1 amounted to 0.98, the f2 was found to be 0.02, the α1 was 0.996 and the α2 turned out to be 0.004. Besides, in series [1] (25/75 MeOH/H2O), the τ1 is given as 0.52 ns, the τ2 is 2.36 ns, the τf turned out to be 0.54 ns and the τα stood at 0.52 ns. In series [1] (50/50 MeOH/H2O), this molecule showed a f1 of 0.85, a f2 of 0.15, a α1 of 0.925 and a α2 of 0.075. In series [1] (50/50 MeOH/H2O), the τ1 came out at 1.09 ns, the τ2 stood at 2.33 ns, the τf worked out at 1.27 ns and the τα is reported as 1.19 ns. For the same molecule, in series [1] (Acetonitrile), the f1 is given as 1.0, the α1 is on record as 1.0, the τ1 was 7.04 ns and the τf stood at 7.04 ns. Further, in series [1] (Acetonitrile), the τα was 7.04 ns. Further, in series [1] (Biofinity ™ lens), the f1 stood at 0.05, the f2 was determined as 0.95, the α1 worked out at 0.36 and the α2 amounted to 0.64. In series [1] (Biofinity ™ lens), the τ1 turned out to be 0.40 ns, the τ2 is 11.00 ns, the τf came out at 11.91 ns and the τα is listed as 8.76 ns. Also, in series [1] (EtOH), the f1 is given as 0.02, the f2 is listed as 0.98, the α1 is given as 0.05 and the α2 was found to be 0.95. In addition, in series [1] (EtOH), the τ1 turned out to be 3.13 ns, the τ2 was found to be 8.83 ns, the τf came to 8.74 ns and the τα came to 8.57 ns. In series [1] (MyDay ™ lens), this molecule displayed a f1 of 0.20, a f2 of 0.80, a α1 of 0.421 and a α2 of 0.578. In series [1] (MyDay ™ lens), this molecule registered a τ1 of 4.01 ns, a τ2 of 12.79 ns, a τf of 11.97 ns and a τα of 9.70 ns.

For `Cc1ccc(N(CC(=O)O)CC(=O)O)c(OCCOc2cc3cc(-c4ncc(C(=O)O)o4)oc3cc2N(CC(=O)O)CC(=O)O)c1` [F ? -2], in series [2], the “Lifetime (ns), Ca bound form” value is listed as 1.68 ns; the “Q, Ca bound form” value is 0.49; the “Lifetime (ns), Ca free form” value was 1.09 ns; the “Q, Ca free form” value is recorded as 0.23.

Turning to `O=S(=O)(O)c1cc(O)c2ccc3c(S(=O)(=O)O)cc(S(=O)(=O)O)c4ccc1c2c34` [HPTS, 8-hydroxypyrene-1,3,6-trisulfonate], the pKA in series [3] is 7.3.

In the case of `Cc1ccc(N(CC(=O)O)CC(=O)O)c(OCCOc2cc(-c3cc4ccc(C(=O)O)cc4[nH]3)ccc2N(CC(=O)O)CC(=O)O)c1` [Indo-1], in series [2], the “Lifetime (ns), Ca bound form” value is on record as 1.66 ns; the “Q, Ca bound form” value is given as 0.50; the “Lifetime (ns), Ca free form” value is given as 1.40 ns; the “Q, Ca free form” value was 0.38.

Regarding `O=C(O)c1ccccc1-c1c2cc(F)c(=O)cc-2oc2cc(O)c(F)cc12` [Oregon-Green], in series [3] (A form (value in parentheses)), the “Lifetime (ns) τA” value is 2.47 ns and the QA is 0.22. In series [3] (B form), the “Lifetime (ns) τB” value is given as 4.37 ns and the QB is recorded as 0.65. The pKA in series [3] is 1.8.

As for `Cc1ccc(N(CC(=O)O)CC(=O)O)c(OCCOc2cc(-c3c4cc(Cl)c(=O)cc-4oc4cc(O)c(Cl)cc34)ccc2N(CC(=O)O)CC(=O)O)c1` [Pluo-3], in series [2], the “Lifetime (ns), Ca bound form” value is on record as 1.28 ns and the “Lifetime (ns), Ca free form” value was 0.04 ns.

In series [4] (in 1-hexanol), `CCC(=O)c1ccc2cc(N(C)C)ccc2c1` [Prodan ™] came in with a f1 of 1.0, a α1 of 1.0, a τ1 of 3.40 ns and a τf of 3.40 ns. Moreover, in series [4] (in 1-hexanol), the τα worked out at 3.40 ns. In series [4] (in Acetonitrile), this molecule came in with a f1 of 1.0, a α1 of 1.0, a τ1 of 3.38 ns and a τf of 3.38 ns. The molecule also showed a τα in series [4] (in Acetonitrile) of 3.38 ns. Moreover, in series [4] (in Biofinity contact lens), the f1 was determined as 1.0, the α1 came to 1.0, the τ1 is on record as 3.98 ns and the τf is on record as 3.98 ns. Moreover, in series [4] (in Biofinity contact lens), the τα turned out to be 3.98 ns. For the same molecule, in series [4] (in EtOH), the f1 was determined as 1.0, the α1 was 1.0, the τ1 came to 3.28 ns and the τf is 3.28 ns. This molecule also registered a τα in series [4] (in EtOH) of 3.28 ns. In series [4] (in MyDay contact lens, 2 hr), the f1 is given as 0.82, the f2 was 0.18, the α1 worked out at 0.94 and the α2 is 0.07. For the same molecule, in series [4] (in MyDay contact lens, 2 hr), the τ1 is 3.81 ns, the τ2 is 12.15 ns, the τf is 5.34 ns and the τα was determined as 4.36 ns. Also, in series [4] (in MyDay contact lens, 1 day), the f1 amounted to 0.67, the f2 is recorded as 0.33, the α1 came out at 0.87 and the α2 came to 0.13. In series [4] (in MyDay contact lens, 1 day), this molecule returned a τ1 of 4.48 ns, a τ2 of 14.41 ns, a τf of 7.76 ns and a τα of 5.80 ns. In series [4] (in Water), this molecule yielded a f1 of 0.494, a f2 of 0.51, a α1 of 0.740 and a α2 of 0.260. In series [4] (in Water), this molecule displayed a τ1 of 0.69 ns, a τ2 of 2.02 ns, a τf of 1.36 ns and a τα of 1.04 ns.

On to `COc1cc(N(CC(=O)O)CC(=O)O)c2nc(COc3cc(C)ccc3N(CC(=O)O)CC(=O)O)ccc2c1` [Quin-2], for which, in series [2], the “Lifetime (ns), Ca bound form” value is listed as 11.6 ns; the “Q, Ca bound form” value is recorded as 0.14; the “Lifetime (ns), Ca free form” value is 1.35 ns; the “Q, Ca free form” value is given as 0.03.

Consider `O=c1ccc2nc3ccc(O)cc3oc-2c1` [Resorufin], for which, in series [3] (A form (value in parentheses)), the “Lifetime (ns) τA” value is 0.45 ns. Further, the “Lifetime (ns) τB” value in series [3] (B form) is recorded as 2.92 ns. For the same molecule, the pKA in series [3] is reported as ~5.7.

In the case of `COc1cc2cc(-c3ccc(C(=O)O)cc3C(=O)O)oc2cc1N1CCOCCOCCN(c2cc3oc(-c4ccc(C(=O)O)cc4C(=O)O)cc3cc2OC)CCOCC1` [SBF ?], in series [5] (setting [6]), the “Lifetime (ns), cation-bound form” value is 0.47 ns and the “Q, cation-bound form” value is 0.087. In series [5] (free form), the “Lifetime (ns), free form” value is recorded as 0.27 ns and the “Q, free form” value is on record as 0.645. Moreover, the Kd in series [5] (read-out: K (mM), binding constant) was 3.8 mM.

`CCN(CC)Cc1ccnc(-c2cc(CN(CC)CC)ccn2)c1.[Ru+2].c1ccc(-c2ccccn2)nc1.c1ccc(-c2ccccn2)nc1` [[Ru(deabpy)(bpy)2]^2+]: the “Lifetime (ns) τA” value in series [3] (A form (value in parentheses)) is 235 ns. In addition, the “Lifetime (ns) τB” value in series [3] (B form) is on record as 380 ns. Further, the pKA in series [3] was 7.5.
